# Experimental data reported in PMC7732128, “Regulation of gene transcription by thyroid hormone receptor β agonists in clinical development for the treatment of non-alcoholic steatohepatitis (NASH)” (PLoS ONE, 2020).
# Read-outs that look alike come from different tables or passages of the source.
# Assays:
# [1] = High-fat diet fed rat study: plasma compound concentration (LC-MS/MS); format: in vivo; conditions: male, Sprague Dawley, po, HFD rats, read-out: Plasma AUC0-24hrs
# Description: Eighty-four male Sprague Dawley rats, approximately 8 to 11 weeks of age, were fed with either a normal diet, ND (D12450K: 10 kcal% fat, no sucrose), or high-fat diet, HFD (D12109C: 40 kcal% fat, 1.25 gm% cholesterol, 0.5 gm% sodium cholate, 12.5 gm% sucrose). After 12 days of diet consumption, baseline serum total cholesterol and low-density lipoprotein cholesterol (LDL-C) levels were measured with the cobas 6000 c501 Chemistry Analyzer (Roche) to confirm hypercholesterolemia in the HFD fed rats. Animals were then randomized into treatment groups.
# Twenty-four hrs after dosing, animals were euthanized by CO2 inhalation and serum and plasma were collected along with liver tissue. Serum total cholesterol and LDL-C levels were determined as described above. […] Caudate lobes of the liver were used for analysis of hepatic total cholesterol (Abcam, ab65390) and triglyceride levels (Abcam, ab65336) via enzyme-linked immunosorbent assay. Right lateral lobes were stored in RNAlater (Invitrogen, AM7020) at -70°C until homogenization with the Scientz-48 TissueLyser LT for downstream gene expression analysis. RNA extraction was performed at WuXi AppTec (Hong Kong) Limited (China) with the RNeasy Mini Kit (Qiagen, 74106) and RNA concentration and quality was determined using the Nanodrop 2000 (Thermo Scientific); additional quality control was assessed with agarose gel electrophoresis. One μg total RNA from each sample was then reverse-transcribed using the High Capacity cDNA Reverse Transcription kit (Applied Biosystems, 4368814) and the resulting cDNA was diluted 1:5 with nuclease-free, distilled water. Gene expression was measured using TaqMan Fast Advanced Master Mix and the following TaqMan Gene Expression assays: Actb (Rn00667869_m1), Cpt1a (Rn00580702_m1), Dio1 (Rn00572183_m1), Me1 (Rn00561502_m1), Rplp1 (Rn03467157_gH), and Thrsp (Rn01511034_m1). Actb and Rplp1 served as control housekeeping genes. […] Relative quantification (RQ) of gene expression was calculated via the 2^−ΔΔCt method and statistical analysis was performed in GraphPad Prism 8.0 and Microsoft Excel.
# healthy volunteers = conditions: two weeks, ≥ 80 mg; cited from earlier work
# THRβ (α:β) = test system: THRβ (α:β); set-up: method as in PMID 32768645; conditions: coactivator recruitment assay; cited from earlier work
# THRβ over THRα = conditions: from ligand-binding affinities (Kd or Ki); cited from earlier work
# GST-tagged THRβ LBD = biological target: T1, GST-tagged THRβ LBD (Homo sapiens, UniProt P10828); assay: TR-FRET thyroid hormone receptor coactivator assay, THRβ; format: biochemical; conditions: for EC50: read-out: THRβ EC50 Mean ± SEM
# T1 construct: purchased Invitrogen PV4686
# T1 sequence (P10828 217-461 limits assumed): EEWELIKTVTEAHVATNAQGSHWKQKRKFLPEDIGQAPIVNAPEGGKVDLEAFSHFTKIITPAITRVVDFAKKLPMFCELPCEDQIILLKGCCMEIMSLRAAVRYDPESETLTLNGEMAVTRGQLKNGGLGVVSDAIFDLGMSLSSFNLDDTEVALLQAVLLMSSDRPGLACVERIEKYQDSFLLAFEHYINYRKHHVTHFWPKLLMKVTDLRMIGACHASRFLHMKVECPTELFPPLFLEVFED
# Excerpt: A time-resolved FRET (TR-FRET)-based, biochemical assay was used as an initial screen to assess the ability of compounds to bind either THRα or β in vitro. […] Upon excitation of the terbium-labeled anti-GST antibody, energy is transferred to the fluorescein-labeled coactivator peptide and is detected as emission at 520 nm.
# The assay procedure is based on the manufacturer’s protocol for LanthaScreen™ TR-FRET Thyroid Receptor beta Coactivator Assay (Invitrogen, PV4686) with slight, optimized modifications. Briefly, the assay was performed in 384-well, black microplate plates, protected from light. Test compounds were serially diluted in DMSO (1.0% final DMSO concentration) and added to the test plate. GST-tagged THRα or β LBD was added to the plate to yield a final concentration of 1.0 nM, followed by a mixture of the fluorescein-labeled SRC2-2 coactivator peptide and terbium-labeled anti-GST antibody at the final concentrations of 200.0 nM and 2.0 nM, respectively. […] Statistical analysis was performed in GraphPad Prism 8.0.
# In the TR-FRET thyroid hormone receptor coactivator assay, increasing concentrations of each compound was combined with the GST-tagged LBD of THRα or β, a coactivator peptide, and terbium-labeled anti-GST antibody. TR-FRET was then measured and dose-response curves were generated. In the luciferase reporter assay, HEK293T cells were transfected with a firefly luciferase reporter plasmid under the control of the TRE-Luc, a RXR expression plasmid, and either a THRα or β expression plasmid. The cells were then treated with increasing concentrations of each compound. Luminescence was measured and dose-response curves were generated. For both assays, calculated EC50 means ± SEM, n, and THRα EC50-to-THRβ EC50 ratios (α:β) are reported for each compound-THR subtype combination.
# cholesterol-fed rat = test system: cholesterol-fed rat; set-up: method as in PMID 18975928; conditions: cited from earlier work
# [2] = set-up: method as in doi:10.1016/s0735-1097(16)31933-7; conditions: 14-day treatment, ≥ 5 mg; cited from earlier work
AUC(0-t) ([1]; 0.5 mg/kg P.O. single dose) [ng·h/mL],AUC(0-t) ([1]; 1.5 mg/kg P.O. single dose) [ng·h/mL],AUC(0-t) ([1]; 5.0 mg/kg P.O. single dose) [ng·h/mL],α:β (THRα EC50-to-THRβ EC50 ratio) (GST-tagged THRβ LBD),EC50 (GST-tagged THRβ LBD) [nM],SMILES,reduction in LDL-C (healthy volunteers),reduction in total cholesterol (healthy volunteers),selectivity for THRβ (α:β) (THRβ (α:β)),selectivity for THRβ over THRα (THRβ over THRα) [fold],reduction in total cholesterol (cholesterol-fed rat; single dose 0.5 mg/kg) [%],decrease in total cholesterol (cholesterol-fed rat; single dose 3.0 mg/kg) [%],reduction in LDL-C [2]
2600,8200,21700,,,"CC(C)c1cc(Oc2c(Cl)cc(-n3nc(C#N)c(=O)[nH]c3=O)cc2Cl)n[nH]c1=O [MGL-3196, 2-[3,5-dichloro-4-(5-isopropyl-6-oxo-1,6-dihydropyridazin-3-yloxy)phenyl]-3,5-dioxo-2,3,4,5-tetrahydro[1,2,4]triazine-6-carbonitrile]",21.8–30.3%,16.0–22.8%,,,,,
,,,2.5,10.1 ± 2.7,Cc1cc(OCP(=O)(O)O)cc(C)c1Cc1ccc(O)c(C(C)C)c1 [VK2809A],,,2.1,15.8,,,
,,,0.6,460 ± 163,Cc1cc(OCP2(=O)OCC[C@@H](c3cccc(Cl)c3)O2)cc(C)c1Cc1ccc(O)c(C(C)C)c1 (some centres unmarked) [VK2809],,,,,36,≤ 55,up to 41.2%
